Data reported in BindingDB's records for doi:10.1016/j.bmcl.2005.08.114 (Wyeth Research, 2005).

Assay: Reduction of viral RNA and protein in Huh7 cells containing HCV sub-genomic replicon

- EC50: 3.2 µM
Compound: CCC[C@]1(CC(=O)O)OCCc2c1sc1c(C)cc(F)c(C#N)c21 [((R)-5-cyano-6-fluoro-8-methyl-1-propyl-3,4-dihydro-1H-benzo[4,5]thieno[2,3-c]pyran-1-yl)-acetic acid]
